Source: US20240285552A1 (priority 2020, published 2024)
pIC50: −log10 of the molar value. Structures can show the parent of a compound that is named as a salt. Where two headings read alike, the source gives them in different places.

What was measured:
[1] = tested on: B.1.617.2 Delta Variant of SARS-CoV-2; assay: microbe, parasite or virus in culture; assay type: cell-based; conditions: for pIC50: read-out: IC 50 against B.1.617.2 Delta Variant Infection-Induced CPE
[2] = tested on: SARS-CoV-2 spike (B.1.617.2 Delta Variant) pseudotyped lentivirus; assay: microbe, parasite or virus in culture; assay type: cell-based; conditions: for inhibition at 10 µM: HEK293, 10 μM
[3] = Severe acute respiratory syndrome coronavirus 2, Vero C1008, Vero E6
[4] = Lentivirus, read-out: Percent (%) Inhibition of Pseudo virus Entry in HEK293 Kidney Cells, B.1.617.2 Delta Variant

Row | Compound | Conc. at Max. % Inhibition [1] | pIC50 [1, 3] | Max. Inhibition [1] | pIC50 ([1]; Vero E6) | pIC50 ([1]; Vero E6, hydrochloride) | Percent (%) Inhibition of Pseudo virus Entry in HEK293 Kidney Cells, B.1.617.2 Delta Variant ([2]; 50 μM, hydrochloride) | Percent (%) Inhibition of Pseudo virus Entry in HEK293 Kidney Cells, B.1.617.2 Delta Variant ([2]; 100 μM, hydrochloride) | inhibition at 10 µM [2, 4] | inhibition at 25 µM ([2]; Lentivirus, HEK293, 25 μM, read-out: Percent (%) Inhibition of Pseudo virus Entry in HEK293 Kidney Cells, B.1.617.2 Delta Variant) | inhibition at 50 µM ([2]; Lentivirus, HEK293, 50 μM, read-out: Percent (%) Inhibition of Pseudo virus Entry in HEK293 Kidney Cells, B.1.617.2 Delta Variant) | inhibition at 100 µM ([2]; Lentivirus, HEK293, 100 μM, read-out: Percent (%) Inhibition of Pseudo virus Entry in HEK293 Kidney Cells, B.1.617.2 Delta Variant) | Percent (%) Inhibition of Pseudo virus Entry in HEK293 Kidney Cells, B.1.617.2 Delta Variant ([2]; 100 μM)
1 | CCN(CC)CCCC(C)Nc1ccnc2cc(Cl)ccc12 (stereo not drawn) [Chloroquine] | 15 µM | 5.08 | – | – | – | – | – | – | – | – | – | –
2 | CCC(CC)COC(=O)[C@H](C)N[P@](=O)(OC[C@H]1O[C@@](C#N)(c2ccc3c(N)ncnn23)[C@H](O)[C@@H]1O)Oc1ccccc1 [Remdesivir] | 15 µM | 5.08 | 104.26% | – | – | – | – | – | – | – | – | –
3 | CCOC(=O)[C@H]1O[C@@H]1C(=O)N[C@@H](CC(C)C)C(=O)NCCC(C)C [Aloxistatin] | 15 µM | 5.01 | 85.17% | 5.01 | – | – | – | – | – | – | – | –
4 | CC(C)(C)[C@H](NC(=O)C(F)(F)F)C(=O)N1C[C@H]2[C@@H]([C@H]1C(=O)N[C@H](C#N)C[C@@H]1CCNC1=O)C2(C)C [PF-07321332] | 10 µM | – | 96.28% | 5.70 | – | – | – | – | – | – | – | –
5 | Nc1c(Br)cc(Br)cc1CN[C@H]1CC[C@H](O)CC1 [AMB, 4-[(2-amino-3,5-dibromophenyl)methylamino]cyclohexan-1-ol; hydrochloride] | 150 µM | ~4.01 | 88.38% | – | 4.01 | 48% | 95% | 6% | 19% | 50% | 100% | –
6 | CN(Cc1cc(Br)cc(Br)c1N)C1CCCCC1 [BHH, Bromhexine hydrochloride] | 18.75 µM | 4.75 | 74.57% | – | – | – | – | ~10% | – | – | – | blocked viral entry completely
